Assays:
Klebsiella pneumoniae = conditions: ATCC 700603, Concentration 32.0 ug.mL-1
Description: Antibacterial activity against Klebsiella pneumoniae MDR ATCC 70063 (CO-ADD:GN_003); MIC in CAMBH media using NBS plates, by OD(600)

Pseudomonas aeruginosa = conditions: ATCC 27853, Concentration 32.0 ug.mL-1
Description: Antibacterial activity against Pseudomonas aeruginosa ATCC 27853 (CO-ADD:GN_042); MIC in CAMBH media using NBS plates, by OD(600)

Acinetobacter baumannii = assay: Antibacterial activity against Acinetobacter baumannii ATCC 19606 (CO-ADD:GN_034); MIC in CAMBH media using NBS plates, by OD600; conditions: Concentration 32.0 ug.mL-1
Staphylococcus aureus = assay: Antibacterial activity against Staphylococcus aureus MRSA ATCC 43300 (CO-ADD:GP_020); MIC in CAMBH media, using NBS plates, by OD(600); conditions: Concentration 32.0 ug.mL-1
Escherichia coli = assay: Antibacterial activity against Escherichia coli ATCC 25922 (CO-ADD:GN_001); MIC in CAMBH media using NBS plates, by OD(600); conditions: Concentration 32.0 ug.mL-1

Measured: inhibition

Cc1ccc(CCn2cc([N+](=O)[O-])nc2C(N)=O)cc1
Average; N=2: all assays above

O=C(c1ncc([N+](=O)[O-])[nH]1)N1CCOCC1
Average; N=2: all assays above

CN(C)C(=O)c1ncc([N+](=O)[O-])[nH]1
Average; N=2: all assays above

NC(=O)c1ncc([N+](=O)[O-])[nH]1
Average; N=2: all assays above

NC(=O)c1nc([N+](=O)[O-])cn1CC1CCCCC1
Average; N=2: all assays above

NC(=O)c1nc([N+](=O)[O-])cn1CCc1ccc(OC(F)(F)F)cc1
Average; N=2: all assays above

O=C(NCCO)c1ncc([N+](=O)[O-])[nH]1
Average; N=2: all assays above

O=C(NCc1ccc(OC(F)(F)F)cc1)c1ncc([N+](=O)[O-])[nH]1
Average; N=2: all assays above

CN(CCO)C(=O)c1ncc([N+](=O)[O-])[nH]1
Average; N=2: all assays above

CS(=O)(=O)c1ccc(CNC(=O)c2ncc([N+](=O)[O-])[nH]2)cc1
Average; N=2: all assays above

O=C(NC1CC1)c1ncc([N+](=O)[O-])[nH]1
Average; N=2: all assays above

NC(=O)c1nc([N+](=O)[O-])cn1Cc1ccccn1
Average; N=2: all assays above

CN(CCOC(=O)c1ncc([N+](=O)[O-])[nH]1)C(=O)c1ncc([N+](=O)[O-])[nH]1
Average; N=2: all assays above

CC(=O)OCCn1cc([N+](=O)[O-])nc1C(N)=O
Average; N=2: all assays above

Nc1c[nH]c(C(=O)NCc2ccc(F)cc2)n1
Average; N=2: all assays above

NC(=O)c1nc([N+](=O)[O-])cn1Cc1ccc(F)cc1
Average; N=2: all assays above

O=C(c1ncc([N+](=O)[O-])[nH]1)N1CCCC1
Average; N=2: all assays above

O=C(NC1CCCCC1)c1ncc([N+](=O)[O-])[nH]1
Average; N=2: all assays above

NC(=O)c1nc([N+](=O)[O-])cn1Cc1ccc(C(F)(F)F)cc1
Average; N=2: all assays above

O=C(NCc1ccccn1)c1ncc([N+](=O)[O-])[nH]1
Average; N=2: all assays above

CNC(=O)c1ncc([N+](=O)[O-])[nH]1
Average; N=2: all assays above

O=C(NCc1ccccc1)c1nc([N+](=O)[O-])c[nH]1
Average; N=2: all assays above

NC(=O)c1nc([N+](=O)[O-])cn1Cc1cccc(OC(F)(F)F)c1
Average; N=2: all assays above
